According to patent US20210308173A1, “PHARMACEUTICAL COMPOSITION COMPRISING CYCLODEXTRIN COMPLEXES OF ANETHOLE TRITHIONE OR DERIVATIVES THEREOF” (priority 2018, published 2021):
≈ marks a conversion by molar mass, not a printed value. Like-named read-outs stand apart in the source and are kept apart here.

Columns and labels:
[1] = Cyclodextrin-AOL solubility diagrams; format: physicochemical; settings: for solubility: 4 °C; for solubility / solubility at 4 h: aqueous with cosolvent or surfactant or cyclodextrin, thermodynamic from solid
Text: A cyclodextrin-AOL solubility diagram would reveal the profile of the solubility curve of the AOL depending on the concentration of the cyclodextrin. The principle of this method is to add an excess of AOL to cyclodextrin solutions of increasing concentration, then to measure the amount of solubilized AOL. This method confirms the solubilization and evaluates more precisely the cyclodextrin solubilizing power, to define a stoichiometry of the complexes (molar and mass ratios) over the entire range of concentrations studied and to estimate the solubility limit and the stability of the mixtures.
The solubilization was carried out with HP-β-CD and SBE-β-CD in a range of concentration ranging from 2.5% to 40% (m/m) at 20° C., 25° C. and 30° C. To check the stability of the solution, a storage test at 4° C. for 48 hours was carried out with the solutions previously prepared at 20° C.
Aqueous solutions of cyclodextrin at in weight (m/m) concentrations of 2.5%, 5%, 10%, 20%, 30% and 40% were prepared in pure water. An excess of AOL was suspended in 2 mL each of these solutions. Each sample is shaken at 20° C., 25° C. or 30° C. for 4 hours (vortex at 1400 rpm). Each sample is centrifuged (12,500 g) and filtered through a 0.45 μm membrane.
The solubility of AOL in each test solution was quantified by HPLC as detailed in Example 2.

[2] = background statement; cited from earlier work
[3] = SBE-β-CD 20% (w/w), 20° C. followed by 48 hours at 4° C.
[4] = SBE-β-CD 30% (w/w), 20° C. followed by 48 hours at 4° C.
[5] = SBE-β-CD 40% (w/w), 20° C. followed by 48 hours at 4° C.

CD/AOL weight ratio Rm ([1]; SBE-β-CD 20% (w/w), 20° C.): 722
CD/AOL molar ratio RM [1, 3]: 130
CD/AOL weight ratio Rm [1, 3]: 1211
CD/AOL molar ratio RM ([1]; SBE-β-CD 20% (w/w), 25° C.): 63
CD/AOL weight ratio Rm ([1]; SBE-β-CD 20% (w/w), 25° C.): 587
CD/AOL molar ratio RM ([1]; SBE-β-CD 20% (w/w), 30° C.): 50
CD/AOL weight ratio Rm ([1]; SBE-β-CD 20% (w/w), 30° C.): 469
CD/AOL molar ratio RM ([1]; SBE-β-CD 30% (w/w), 20° C.): 70
CD/AOL weight ratio Rm ([1]; SBE-β-CD 30% (w/w), 20° C.): 650
CD/AOL molar ratio RM [1, 4]: 112
CD/AOL weight ratio Rm [1, 4]: 1049
CD/AOL molar ratio RM ([1]; SBE-β-CD 30% (w/w), 25° C.): 56
CD/AOL weight ratio Rm ([1]; SBE-β-CD 30% (w/w), 25° C.): 522
CD/AOL molar ratio RM ([1]; SBE-β-CD 30% (w/w), 30° C.): 45
CD/AOL weight ratio Rm ([1]; SBE-β-CD 30% (w/w), 30° C.): 417
CD/AOL molar ratio RM ([1]; SBE-β-CD 40% (w/w), 20° C.): 64
CD/AOL weight ratio Rm ([1]; SBE-β-CD 40% (w/w), 20° C.): 600
CD/AOL molar ratio RM [1, 5]: 94
CD/AOL weight ratio Rm [1, 5]: 876
CD/AOL molar ratio RM ([1]; SBE-β-CD 40% (w/w), 25° C.): 51
CD/AOL weight ratio Rm ([1]; SBE-β-CD 40% (w/w), 25° C.): 474
CD/AOL molar ratio RM ([1]; SBE-β-CD 40% (w/w), 30° C.): 41
CD/AOL weight ratio Rm ([1]; SBE-β-CD 40% (w/w), 30° C.): 383
solubility ([1]; aqueous HP-β-CD solution, HP-β-CD 2.5% (w/w), 20° C. followed by 48 hours at 4° C.): 11.6 µg/mL (≈ 48.3 µM)
solubility ([1]; aqueous HP-β-CD solution, HP-β-CD 5% (w/w), 20° C. followed by 48 hours at 4° C.): 25.1 µg/mL (≈ 104 µM)
solubility ([1]; aqueous HP-β-CD solution, HP-β-CD 10% (w/w), 20° C. followed by 48 hours at 4° C.): 52.7 µg/mL (≈ 219 µM)
solubility ([1]; aqueous HP-β-CD solution, HP-β-CD 20% (w/w), 20° C. followed by 48 hours at 4° C.): 109 µg/mL (≈ 452 µM)
solubility ([1]; aqueous HP-β-CD solution, HP-β-CD 30% (w/w), 20° C. followed by 48 hours at 4° C.): 187 µg/mL (≈ 777 µM)
solubility ([1]; aqueous HP-β-CD solution, HP-β-CD 40% (w/w), 20° C. followed by 48 hours at 4° C.): 270 µg/mL (≈ 1120 µM)
solubility at 4 h ([1]; aqueous HP-β-CD solution, 20 °C, HP-β-CD 2.5% (w/w), 20° C., read-out: AOL solubility): 13.4 µg/mL (≈ 55.7 µM)
solubility at 4 h ([1]; aqueous HP-β-CD solution, 20 °C, HP-β-CD 5% (w/w), 20° C., read-out: AOL solubility): 27.3 µg/mL (≈ 114 µM)
solubility at 4 h ([1]; aqueous HP-β-CD solution, 30 °C, HP-β-CD 40% (w/w), 30° C., read-out: AOL solubility): 644 µg/mL (≈ 2680 µM)
solubility ([1]; aqueous SBE-β-CD solution, SBE-β-CD 2.5% (w/w), 20° C. followed by 48 hours at 4° C.): 16.9 µg/mL (≈ 70.3 µM)
solubility ([1]; aqueous SBE-β-CD solution, SBE-β-CD 5% (w/w), 20° C. followed by 48 hours at 4° C.): 34.6 µg/mL (≈ 144 µM)
solubility ([1]; aqueous SBE-β-CD solution, SBE-β-CD 10% (w/w), 20° C. followed by 48 hours at 4° C.): 70.7 µg/mL (≈ 294 µM)
solubility ([1]; aqueous SBE-β-CD solution, SBE-β-CD 20% (w/w), 20° C. followed by 48 hours at 4° C.): 165 µg/mL (≈ 687 µM)
solubility ([1]; aqueous SBE-β-CD solution, SBE-β-CD 30% (w/w), 20° C. followed by 48 hours at 4° C.): 286 µg/mL (≈ 1190 µM)
solubility ([1]; aqueous SBE-β-CD solution, SBE-β-CD 40% (w/w), 20° C. followed by 48 hours at 4° C.): 457 µg/mL (≈ 1900 µM)
solubility at 4 h ([1]; aqueous SBE-β-CD solution, 20 °C, SBE-β-CD 2.5% (w/w), 20° C., read-out: AOL solubility): 29.3 µg/mL (≈ 122 µM)
solubility at 4 h ([1]; aqueous SBE-β-CD solution, 20 °C, SBE-β-CD 5% (w/w), 20° C., read-out: AOL solubility): 59.7 µg/mL (≈ 248 µM)
solubility at 4 h ([1]; aqueous SBE-β-CD solution, 20 °C, SBE-β-CD 10% (w/w), 20° C., read-out: AOL solubility): 125 µg/mL (≈ 521 µM)
solubility at 4 h ([1]; aqueous SBE-β-CD solution, 20 °C, SBE-β-CD 20% (w/w), 20° C., read-out: AOL solubility): 277 µg/mL (≈ 1150 µM)
solubility at 4 h ([1]; aqueous SBE-β-CD solution, 20 °C, SBE-β-CD 30% (w/w), 20° C., read-out: AOL solubility): 462 µg/mL (≈ 1920 µM)
solubility at 4 h ([1]; aqueous SBE-β-CD solution, 20 °C, SBE-β-CD 40% (w/w), 20° C., read-out: AOL solubility): 667 µg/mL (≈ 2770 µM)
solubility at 4 h ([1]; aqueous SBE-β-CD solution, 25 °C, SBE-β-CD 2.5% (w/w), 25° C., read-out: AOL solubility): 35.8 µg/mL (≈ 149 µM)
solubility at 4 h ([1]; aqueous SBE-β-CD solution, 25 °C, SBE-β-CD 5% (w/w), 25° C., read-out: AOL solubility): 74.9 µg/mL (≈ 312 µM)
solubility at 4 h ([1]; aqueous SBE-β-CD solution, 25 °C, SBE-β-CD 10% (w/w), 25° C., read-out: AOL solubility): 156 µg/mL (≈ 651 µM)
solubility at 4 h ([1]; aqueous SBE-β-CD solution, 25 °C, SBE-β-CD 20% (w/w), 25° C., read-out: AOL solubility): 340 µg/mL (≈ 1420 µM)
solubility at 4 h ([1]; aqueous SBE-β-CD solution, 25 °C, SBE-β-CD 30% (w/w), 25° C., read-out: AOL solubility): 575 µg/mL (≈ 2390 µM)
solubility at 4 h ([1]; aqueous SBE-β-CD solution, 25 °C, SBE-β-CD 40% (w/w), 25° C., read-out: AOL solubility): 844 µg/mL (≈ 3510 µM)
solubility at 4 h ([1]; aqueous SBE-β-CD solution, 30 °C, SBE-β-CD 2.5% (w/w), 30° C., read-out: AOL solubility): 44.7 µg/mL (≈ 186 µM)
solubility at 4 h ([1]; aqueous SBE-β-CD solution, 30 °C, SBE-β-CD 5% (w/w), 30° C., read-out: AOL solubility): 96.2 µg/mL (≈ 400 µM)
solubility at 4 h ([1]; aqueous SBE-β-CD solution, 30 °C, SBE-β-CD 10% (w/w), 30° C., read-out: AOL solubility): 197 µg/mL (≈ 821 µM)
solubility at 4 h ([1]; aqueous SBE-β-CD solution, 30 °C, SBE-β-CD 20% (w/w), 30° C., read-out: AOL solubility): 427 µg/mL (≈ 1780 µM)
solubility at 4 h ([1]; aqueous SBE-β-CD solution, 30 °C, SBE-β-CD 30% (w/w), 30° C., read-out: AOL solubility): 720 µg/mL (≈ 3000 µM)
solubility at 4 h ([1]; aqueous SBE-β-CD solution, 30 °C, SBE-β-CD 40% (w/w), 30° C., read-out: AOL solubility): 1040 µg/mL (≈ 4340 µM)
solubility at 4 h ([1]; aqueous cyclodextrin solution, 20 °C, HP-β-CD 10% (w/w), 20° C., read-out: AOL solubility): 61.3 µg/mL (≈ 255 µM)
solubility at 4 h ([1]; aqueous cyclodextrin solution, 20 °C, HP-β-CD 20% (w/w), 20° C., read-out: AOL solubility): 145 µg/mL (≈ 602 µM)
solubility at 4 h ([1]; aqueous cyclodextrin solution, 20 °C, HP-β-CD 30% (w/w), 20° C., read-out: AOL solubility): 243 µg/mL (≈ 1010 µM)
solubility at 4 h ([1]; aqueous cyclodextrin solution, 20 °C, HP-β-CD 40% (w/w), 20° C., read-out: AOL solubility): 344 µg/mL (≈ 1430 µM)
solubility at 4 h ([1]; aqueous cyclodextrin solution, 25 °C, HP-β-CD 2.5% (w/w), 25° C., read-out: AOL solubility): 19.5 µg/mL (≈ 81.1 µM)
solubility at 4 h ([1]; aqueous cyclodextrin solution, 25 °C, HP-β-CD 5% (w/w), 25° C., read-out: AOL solubility): 40.1 µg/mL (≈ 167 µM)
solubility at 4 h ([1]; aqueous cyclodextrin solution, 25 °C, HP-β-CD 10% (w/w), 25° C., read-out: AOL solubility): 83.9 µg/mL (≈ 349 µM)
solubility at 4 h ([1]; aqueous cyclodextrin solution, 25 °C, HP-β-CD 20% (w/w), 25° C., read-out: AOL solubility): 184 µg/mL (≈ 766 µM)
solubility at 4 h ([1]; aqueous cyclodextrin solution, 25 °C, HP-β-CD 30% (w/w), 25° C., read-out: AOL solubility): 287 µg/mL (≈ 1200 µM)
solubility at 4 h ([1]; aqueous cyclodextrin solution, 25 °C, HP-β-CD 40% (w/w), 25° C., read-out: AOL solubility): 418 µg/mL (≈ 1740 µM)
solubility at 4 h ([1]; aqueous cyclodextrin solution, 30 °C, 30° C., 40% (w/w) HP-β-CD, read-out: highest solubility reached): 650 µg/mL (≈ 2700 µM)
solubility at 4 h ([1]; aqueous cyclodextrin solution, 30 °C, 30° C., 40% SBE-β-CD, read-out: solubility): > 1000 µg/mL
solubility at 4 h ([1]; aqueous cyclodextrin solution, 30 °C, HP-β-CD 2.5% (w/w), 30° C., read-out: AOL solubility): 26.1 µg/mL (≈ 109 µM)
solubility at 4 h ([1]; aqueous cyclodextrin solution, 30 °C, HP-β-CD 5% (w/w), 30° C., read-out: AOL solubility): 51.4 µg/mL (≈ 214 µM)
solubility at 4 h ([1]; aqueous cyclodextrin solution, 30 °C, HP-β-CD 10% (w/w), 30° C., read-out: AOL solubility): 114 µg/mL (≈ 476 µM)
solubility at 4 h ([1]; aqueous cyclodextrin solution, 30 °C, HP-β-CD 20% (w/w), 30° C., read-out: AOL solubility): 255 µg/mL (≈ 1060 µM)
solubility at 4 h ([1]; aqueous cyclodextrin solution, 30 °C, HP-β-CD 30% (w/w), 30° C., read-out: AOL solubility): 458 µg/mL (≈ 1900 µM)
Compound: COc1ccc(-c2cc(=S)ss2)cc1 [AOL, 5-(4-methoxyphenyl)-3H-1,2-dithiole-3-thione]
intrinsic aqueous solubility [2]: less than 0.3 mg/L
